Assay results reported in patent publication US9365508B2, “Aroyl thiourea derivatives” (University Court of the University of St Andrews, priority 2009, dated 2016).
Structures can show the parent of a compound that is named as a salt.

Key:
[1] = target: SIRT1 (Homo sapiens (Human), UniProt Q96EB6); assay: SIRT1 inhibition assay (Fluor de Lys fluorescence-based assay kit); assay type: biochemical; settings: human recombinant enzyme; for inhibition at 60 µM: 60 μM compound, read-out: SirT1 (% inhib at 60 μM)
SIRT1, sequence (Q96EB6 whole entry): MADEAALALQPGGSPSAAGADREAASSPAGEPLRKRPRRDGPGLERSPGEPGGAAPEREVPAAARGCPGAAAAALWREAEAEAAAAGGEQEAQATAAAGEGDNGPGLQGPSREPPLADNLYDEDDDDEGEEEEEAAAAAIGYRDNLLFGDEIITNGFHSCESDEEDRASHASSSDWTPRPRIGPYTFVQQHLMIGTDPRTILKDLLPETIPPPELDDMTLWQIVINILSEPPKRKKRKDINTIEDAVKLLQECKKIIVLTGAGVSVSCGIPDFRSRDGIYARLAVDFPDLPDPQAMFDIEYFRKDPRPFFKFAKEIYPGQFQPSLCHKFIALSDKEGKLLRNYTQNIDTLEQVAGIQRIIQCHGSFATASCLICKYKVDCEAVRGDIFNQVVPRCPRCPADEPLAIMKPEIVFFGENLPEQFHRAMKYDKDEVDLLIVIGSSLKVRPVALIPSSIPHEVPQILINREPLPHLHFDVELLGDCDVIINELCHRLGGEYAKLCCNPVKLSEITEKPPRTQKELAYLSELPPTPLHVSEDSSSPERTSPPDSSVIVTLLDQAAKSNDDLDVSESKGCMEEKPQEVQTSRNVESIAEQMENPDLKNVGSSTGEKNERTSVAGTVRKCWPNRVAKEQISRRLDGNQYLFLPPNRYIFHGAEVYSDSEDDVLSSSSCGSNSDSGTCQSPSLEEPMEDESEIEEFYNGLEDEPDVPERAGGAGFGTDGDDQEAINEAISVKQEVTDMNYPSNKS
Method: (§1) SIRT1 and SIRT2 Inhibition Assays
(§2) All compounds were tested for inhibition of SIRT1 and SIRT2 using human recombinant enzymes available in the Fluor de Lys fluorescence-based assay kit (BIOMOL, AK555, AK556). All other required reagents were provided in the kit which was stored at −78° C. Before use, small aliquots of each enzyme (2-3 μL) were prepared, snap frozen in liquid nitrogen and stored at −78° C. Fresh dilutions of compounds were prepared in DMSO and further diluted in assay buffer. NAD^+ (12.5 […] at 4 mM) and Fluor de Lys SIRT1 or SIRT2 (12.5 μL at 100 μM) in assay buffer were added to a white 96 well plate, followed by compound (10 μL) and lastly enzyme (15 μL, 0.07 U/μL or SIRT1 and 0.3 U/μL for SIRT2). After incubation for 1 h at 37° C. a developer solution (50 μL) was added to each reaction. The developer solution contained 38 μL buffer, 10 μL developer and 2 μL nicotinamide (50 mM) per reaction. The plate was then incubated for 45 min at rt and then read using a Spectra Max Gemini fluorimeter with an excitation wavelength of 355 nm and an emission wavelength of 460 nm. SigmaPlot software was used to generate fit curves for raw plots and the equation for each curve was used to calculate IC50 data.

[2] = target: SIRT2 (Homo sapiens (Human), UniProt Q8IXJ6); assay: SIRT2 inhibition assay (Fluor de Lys fluorescence-based assay kit); assay type: biochemical; settings: human recombinant enzyme; for inhibition at 60 µM: 60 μM compound, read-out: SirT2 (% inhib at 60 μM)
SIRT2, sequence (Q8IXJ6 whole entry): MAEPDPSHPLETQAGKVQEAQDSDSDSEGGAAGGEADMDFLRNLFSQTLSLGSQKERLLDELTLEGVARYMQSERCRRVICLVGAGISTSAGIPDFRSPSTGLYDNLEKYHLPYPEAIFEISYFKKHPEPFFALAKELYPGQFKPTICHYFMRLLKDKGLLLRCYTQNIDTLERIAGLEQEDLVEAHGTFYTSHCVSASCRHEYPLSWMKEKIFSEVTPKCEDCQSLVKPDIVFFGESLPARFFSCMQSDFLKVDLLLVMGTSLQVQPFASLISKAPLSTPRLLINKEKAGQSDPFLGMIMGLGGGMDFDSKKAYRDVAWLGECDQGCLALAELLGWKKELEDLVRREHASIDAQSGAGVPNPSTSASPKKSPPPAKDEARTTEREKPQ
Method: as §1, §2

[3] = tested on: 3T3L1 cells; assay: Adipocyte differentiation assay (ORO red lipid staining); assay type: cell-based, mouse; settings: 10 μM compound, 3T3L1 cells in the 8 media, in duplicate, versus controls with and without DMSO
Method: Adipocyte Differentiation Assay
3T3L1 cells (i.e. mouse fibroblasts that differentiate into adipocytes in so-called differentiation medium) were treated in a low glucose differentiation medium (as described by F Wang and Q Tong (Molecular Biology of the Cell, 20, 2009, 801-808) with either (i) a normal growth medium (DMEM), (ii) a low glucose differentiation medium containing ciglitazone, d-biotin, dexamethasone, IBMX, insulin and L-thyroxine, or a (iii) a low glucose differentiation medium as per (ii) but lacking one of the components (i.e 6 different media each comprising five components selected from ciglitazone, d-biotin, dexamethasone, IBMX, insulin and L-thyroxine). Cells were stained with ORO red to detect lipid.
The same differentiation assays with each of the 8 differentiation media were then repeated but with addition of DMSO solvent and also 10 μM of compound D3 (5-dimethylamino-pentanoic acid {4-[3-(3,5-dichloro-4-methoxy-benzoyl)-thioureido]-phenyl}-amide hydrochloride) in duplicate.

| inhibition at 60 µM [1] | inhibition at 60 µM [2] | IC50 [1] | IC50 [2] | Compound | oro red staining (adipogenesis) [3] |
| --- | --- | --- | --- | --- | --- |
| 3.5% | 43.7% |  |  | CN(C)CCCCC(=O)Nc1ccc(NC(=S)NC(=O)c2ccccc2)cc1 [Compound B4, 5-Dimethylamino-pentanoic acid [4-(3-benzoyl-thioureido)-phenyl]-amide hydrochloride] |  |
| 35% | 80.3% | 62.5 ± 3.6 µM | 10.7 ± 1.6 µM | COc1c(Cl)cc(C(=O)NC(=S)Nc2ccc(NC(=O)CCCCN(C)C)cc2)cc1Cl.Cl [Compound D3, 5-Dimethylamino-pentanoic acid {4-[3-(3,5-dichloro-4-methoxy-benzoyl)-thioureido]-phenyl}-amide hydrochloride] | increases the oro red staining |
| 81.5% | 87.9% | 29.3 ± 3.6 µM | 3 ± 0.1 µM | CCOc1c(Cl)cc(C(=O)NC(=S)Nc2ccc(NC(=O)CCCCN(C)C)cc2)cc1Cl [Compound 391a, 5-Dimethylamino-pentanoic acid {4-[3-(3,5-dichloro-4-ethoxy-benzoyl)-thioureido]-phenyl}-amide hydrochloride] |  |
| 47% | 40% |  |  | Cc1ccc(C(=O)NC(=S)Nc2ccc(NC(=O)CCCCN(C)C)cc2)cc1 [318a A2, 5-Dimethylamino-pentanoic acid {4-[3-(4-methyl-benzoyl)-thioureido]-phenyl}-amide hydrochloride] |  |

| Compound | inhibition at 60 µM [1] | inhibition at 60 µM [2] | IC50 [1] | IC50 [2] | oro red staining (adipogenesis) [3] |
| --- | --- | --- | --- | --- | --- |
| CCCCOc1c(Cl)cc(C(=O)NC(=S)Nc2ccc(NC(=O)CCCCN(C)C)cc2)cc1Cl [Compound 392a, 5-Dimethylamino-pentanoic acid {4-[3-(4-butoxy-3,5-dichloro-benzoyl)-thioureido]-phenyl}-amide hydrochloride] | 90.4% | 96.3% | 22.5 ± 1.3 µM | 0.4 ± 0.4 µM |  |
